Test results taken from patent US20100267732A1, “Prognostic Molecular Markers for ET-743 Treatment” (PHARMA MAR, S.A., priority 2007, published 2010).

Tests used:
[1] = test system: sarcoma; test: Clinical outcome of sarcoma patients treated with ET-743 (Example 1, 160 patients; by XPG mRNA, XPG protein, BRCA1 mRNA); format: in vivo, human; parameters: Tumor Control Rate (CR+PR+MR+SD 6 mo) / patients achieving progression free survival 6 months (PFS6) / survival at 12 months: concentration or dose not given beside the values
Method: In this study, 160 paraffin embedded tumor samples from sarcoma patients before the treatment with any chemotherapy agent have been evaluated.
(§1) The majority of patients were treated before with one or several chemotherapy agents and later they followed a treatment with ET-743. The dosage of intravenous infusion (IV) of ET-743 given to the different patients was within the range of 1.650-1.0 mg/m^2; the schedules were 24 hours or 3 hour IV infusion with a three week interval between cycles; and the number of cycles ranged from 1 up to 44 cycles in some patients.
The clinical data from the patients was collected in the clinical data collection form and matched with the molecular data after completion of the mRNA and protein expression levels determination (Table 1).
SAS v8.2 (statistical software) was used for all the statistical analysis. The statistical techniques for univariate, bivariate and multivariate variables were chosen, according with the nature of variables that will be analysed, i.e. when the dependent variable is a temporal variable with censor status the Cox regression would be applied, when correlation between variables will be computed the Pearson and/or Spearman measures would be used. P-values below 0.05 will be considered statistically significant in all tests, when appropriate 95% confidence intervals will be presented too.
A total of 160 paraffin embedded tumor samples providing evaluable results for mRNA or protein expression were analysed. […] These samples came from sarcoma patients before being treated with a chemotherapy agent.

[2] = test system: sarcoma; test: Clinical outcome of sarcoma patients treated with ET-743 (Example 2, 168 patients; by XPG SNP Asp1104His genotype, XPG mRNA, XPG protein); format: in vivo, human; parameters: surviving patients at two years after treatment / Tumor Control Rate (CR+PR+MR+SD≧6 mo) / patients achieving progression free survival ≧6 months (PFS6) / survival at 12 months / rate of survival after 2 years: concentration or dose not given beside the values
Method: In this study, 168 paraffin embedded tumor samples from sarcoma patients before the treatment with any chemotherapy agent have been evaluated.
as §1
The clinical data from the patients was collected in the clinical data collection form and matched with the molecular data (Table 5)
A total of 168 paraffin embedded tumor samples providing evaluable results for at least one of the biomarkers (XPGmRNA, XPG protein, XPGAsp1104His or BRCA 1 mRNA) were analysed.

[3] = high vs low XPG mRNA subpopulation
[4] = high vs low XPG protein subpopulation
[5] = intermediate subpopulation (high BRCA1 and high XPG, or low BRCA1 and low XPG)
[6] = whole cohort, 51 patients still censored
[7] = whole cohort, Kaplan-Meier (FIG. 8)

Compound: COc1cc2c(cc1O)CCN[C@]21CS[C@@H]2c3c(OC(C)=O)c(C)c4c(c3[C@H](COC1=O)N1[C@@H]2[C@H]2c3c(cc(C)c(OC)c3O)C[C@@H]([C@@H]1O)N2C)OCO4 [ET-743, ecteinascidin 743]
- Minor Responses (MR) ([1]; 140 evaluable patients): 7.1%
- Tumor Control Rate (CR+PR+MR+SD 6 mo) ([1]; 140 evaluable patients): 47.1%
- overall response rate (RR), Complete+Partial Responses ([1]; 140 evaluable patients): 16.4%
- patients achieving progression free survival 6 months (PFS6) ([1]; 140 evaluable patients): 41.4%
- CR + PR + MR + SD > 6 ([1]; High BRCA1, High XPG): 11/26 (42%)
- Median PFS ([1]; High BRCA1, High XPG): 2.5 m
- Median Survival ([1]; High BRCA1, High XPG): 13.6 m
- PFS 6 ([1]; High BRCA1, High XPG): 38.5%
- PFS > 6 Months rate ([1]; High BRCA1, High XPG): 9/26 (35%)
- CR + PR + MR + SD > 6 ([1]; High BRCA1, Low XPG): 4/20 (20%)
- Median PFS ([1]; High BRCA1, Low XPG): 2.5 m
- Median Survival ([1]; High BRCA1, Low XPG): 6.6 m
- PFS 6 ([1]; High BRCA1, Low XPG): 22.2%
- PFS > 6 Months rate ([1]; High BRCA1, Low XPG): 4/21 (19%)
- CR + PR ([1]; High BRCA1 mRNA, High XPG mRNA): 5/26 (19%)
- CR + PR ([1]; High BRCA1 mRNA, Low XPG mRNA): 0/20 (0%)
- CR + PR + MR + SD > 6 ([1]; Low BRCA1, High XPG): 12/19 (63%)
- Median PFS ([1]; Low BRCA1, High XPG): 7.3 m
- Median Survival ([1]; Low BRCA1, High XPG): 15.4 m
- PFS 6 ([1]; Low BRCA1, High XPG): 55.7%
- PFS > 6 Months rate ([1]; Low BRCA1, High XPG): 10/21 (48%)
- CR + PR + MR + SD > 6 ([1]; Low BRCA1, Low XPG): 14/31 (45%)
- Median PFS ([1]; Low BRCA1, Low XPG): 3.4 m
- Median Survival ([1]; Low BRCA1, Low XPG): 11.7 m
- PFS 6 ([1]; Low BRCA1, Low XPG): 35.5%
- PFS > 6 Months rate ([1]; Low BRCA1, Low XPG): 12/27 (61%)
- CR + PR ([1]; Low BRCA1 mRNA, High XPG mRNA): 3/19 (16%)
- CR + PR ([1]; Low BRCA1 mRNA, Low XPG mRNA): 6/31 (19%)
- CR + PR ([1]; XPG mRNA < 1.55): 6/59 (10%)
- CR + PR + MR + SD ≧ 6 ([1]; XPG mRNA < 1.55): 21/59 (36%)
- Median PFS (KM) ([1]; XPG mRNA < 1.55): 2.5 m
- Median Survival (KM) ([1]; XPG mRNA < 1.55): 9.3 m
- PFS6 (KM) ([1]; XPG mRNA < 1.55): 29.5%
- PFS ≧ 6 Months rate ([1]; XPG mRNA < 1.55): 18/60 (30%)
- CR + PR ([1]; XPG mRNA ≧ 1.55): 11/57 (19%)
- CR + PR + MR + SD ≧ 6 ([1]; XPG mRNA ≧ 1.55): 32/57 (56%)
- Median PFS (KM) ([1]; XPG mRNA ≧ 1.55): 7.1 m
- Median Survival (KM) ([1]; XPG mRNA ≧ 1.55): 19.1 m
- PFS6 (KM) ([1]; XPG mRNA ≧ 1.55): 52.1%
- PFS ≧ 6 Months rate ([1]; XPG mRNA ≧ 1.55): 28/59 (47.5%)
- CR + PR + MR + SD ≧ 6 ([1]; XPG protein 0 + 1): 27/64 (42%)
- Median PFS (KM) ([1]; XPG protein 0 + 1): 3.7 m
- Median Survival (KM) ([1]; XPG protein 0 + 1): 11.7 m
- PFS6 (KM) ([1]; XPG protein 0 + 1): 39.9%
- PFS ≧ 6 Months ([1]; XPG protein 0 + 1): 26/64 (39%)
- CR + PR + MR + SD ≧ 6 ([1]; XPG protein 2 + 3): 15/25 (60%)
- Median PFS (KM) ([1]; XPG protein 2 + 3): 7.1 m
- Median Survival (KM) ([1]; XPG protein 2 + 3): 27.7 m
- PFS6 (KM) ([1]; XPG protein 2 + 3): 55.6%
- PFS ≧ 6 Months ([1]; XPG protein 2 + 3): 13/25 (50%)
- CR + PR ([1]; XPG protein IHC score 0 + 1): 8/64 (13%)
- CR + PR ([1]; XPG protein IHC score 2 + 3): 6/25 (24%)
- survival at 12 months ([1]; high XPG expression (protein analysis, FIG. 5)): 73.7%
- survival at 12 months ([1]; high XPG mRNA expression): 61.9%
- fold increase in objective response [1, 3]: 1.9 fold
- fold increase in tumor control rate [1, 3]: 1.6 fold
- fold increase in objective response [1, 4]: 1.85 fold
- fold increase in tumor control rate [1, 4]: 1.43 fold
- Median OS [1, 5]: 13.6 months
- Median PFS [1, 5]: 2.8 months
- PFS6 rate [1, 5]: 36.6%
- survival at 12 months ([1]; low XPG mRNA expression): 46.2%
- survival at 12 months ([1]; low XPG protein expression): 45.5%
- median duration of the response (CR+PR+MR) ([1]; whole cohort): 7.83 months
- Median Survival [1, 6]: 10 months
- Median Survival ([1]; whole cohort, Kaplan-Meier): 17.7 months
- PFS6 rate ([1]; whole cohort, Kaplan-Meier): 42.1%
- median progression free survival ([1]; whole cohort, Kaplan-Meier): 3.8 months
- Minor Responses (MR) ([2]; 147 evaluable patients): 6.8%
- Tumor Control Rate (CR+PR+MR+SD≧6 mo) ([2]; 147 evaluable patients): 44.9%
- overall response rate (RR), Complete+Partial Responses ([2]; 147 evaluable patients): 15.6%
- patients achieving progression free survival ≧6 months (PFS6) ([2]; 147 evaluable patients): 39.5%
- Median PFS ([2]; Asp/Asp XPG (W), XPG mRNA < 1.55): 1.8 months
- Median PFS ([2]; Asp/Asp XPG (W), XPG protein 0 + 1): 2.9 months
- Median PFS ([2]; Asp/His + His/His XPG (H + M), XPG mRNA < 1.55): 3.3 months
- Median PFS ([2]; Asp/His + His/His XPG (H + M), XPG protein 0 + 1): 3.3 months
- Median OS ([2]; H + M, XPG mRNA < 1.55): 9.0 months
- OS at 12 months ([2]; H + M, XPG mRNA < 1.55): 39.1%
- PFS at 6 months ([2]; H + M, XPG mRNA < 1.55): 31.3%
- Median OS ([2]; H + M, XPG mRNA >= 1.55): 5.0 months
- Median PFS ([2]; H + M, XPG mRNA >= 1.55): 2.9 months
- OS at 12 months ([2]; H + M, XPG mRNA >= 1.55): 36.9%
- PFS at 6 months ([2]; H + M, XPG mRNA >= 1.55): 15.4%
- Median OS ([2]; H + M, XPG protein 0 + 1): 6.2 months
- OS at 12 months ([2]; H + M, XPG protein 0 + 1): 23.7%
- OS at 24 months ([2]; H + M, XPG protein 0 + 1): 0%
- PFS at 6 months ([2]; H + M, XPG protein 0 + 1): 26.3%
- Median OS ([2]; H + M, XPG protein 2 + 3): 12.2 months
- Median PFS ([2]; H + M, XPG protein 2 + 3): 3.4 months
- OS at 12 months ([2]; H + M, XPG protein 2 + 3): 52.6%
- OS at 24 months ([2]; H + M, XPG protein 2 + 3): 0%
- PFS at 6 months ([2]; H + M, XPG protein 2 + 3): 27.3%
- rate of survival after 2 years ([2]; M+H genotype and high XPG mRNA expression): 0%
- rate of survival after 2 years ([2]; M+H genotype and low XPG mRNA expression): 39.1%
- rate of survival after 2 years ([2]; W genotype and high XPG mRNA expression): 66.9%
- rate of survival after 2 years ([2]; W genotype and low XPG mRNA expression): 28.9%
- Median OS ([2]; W, XPG mRNA < 1.55): 8.6 months
- OS at 12 months ([2]; W, XPG mRNA < 1.55): 28.9%
- PFS at 6 months ([2]; W, XPG mRNA < 1.55): 26.3%
- Median OS ([2]; W, XPG mRNA >= 1.55): 27.7 months
- Median PFS ([2]; W, XPG mRNA >= 1.55): 17.1 months
- OS at 12 months ([2]; W, XPG mRNA >= 1.55): 83.7%
- PFS at 6 months ([2]; W, XPG mRNA >= 1.55): 82.4%
- Median OS ([2]; W, XPG protein 0 + 1): 11.7 months
- OS at 12 months ([2]; W, XPG protein 0 + 1): 47.1%
- OS at 24 months ([2]; W, XPG protein 0 + 1): 40.4%
- PFS at 6 months ([2]; W, XPG protein 0 + 1): 44.0%
- Median OS ([2]; W, XPG protein 2 + 3): 27.7 months
- Median PFS ([2]; W, XPG protein 2 + 3): 8.0 months
- OS at 12 months ([2]; W, XPG protein 2 + 3): 90.0%
- OS at 24 months ([2]; W, XPG protein 2 + 3): 90.0%
- PFS at 6 months ([2]; W, XPG protein 2 + 3): 77.1%
- Median PFS (KM) ([2]; genotype H): 3.4 months
- Median Survival (KM) ([2]; genotype H): 6.9 months
- PFS6 (KM) ([2]; genotype H): 34.6%
- survival at 12 months ([2]; genotype H): 34.6%
- CR + PR + MR + SD ≧ 6 ([2]; genotype M): 0
- Median PFS (KM) ([2]; genotype M): 1.6 months
- Median Survival (KM) ([2]; genotype M): 9.1 months
- PFS6 (KM) ([2]; genotype M): 0%
- survival at 12 months ([2]; genotype M): 31.3%
- Median PFS (KM) ([2]; genotype W): 6.4 months
- Median Survival (KM) ([2]; genotype W): 19.9 months
- PFS6 (KM) ([2]; genotype W): 50.8%
- survival at 12 months ([2]; genotype W): 54%
- median duration of the response (CR+PR+MR) ([2]; whole cohort): 7.83 months
- Median Survival [2, 6]: 9.6 months
- surviving patients at two years after treatment ([2]; whole cohort, Kaplan-Meier): 34.0%
- Median Survival [2, 7]: 15.4 months
- PFS6 rate [2, 7]: 40.2%
- median progression free survival [2, 7]: 3.4 months
